The test system of experiment [1] is tumors. As to the kind of experiment: Survival of tumor-bearing mice treated with PI3K inhibitor BKM120 (Example 3). As to conditions: Treatment Group 1: BKM120 37.5 mg/kg daily oral gavage with standard chow; not statistically different from Control (6.1 days). The class given is in vivo, C57/BL6 mice. As for the experimental part:
In this experiment, β-hydroxybutyrate (βHB) in formulations of the disclosure was tested for its ability to enhance the efficacy of PI3K inhibitors and compared to a ketogenic diet.
In vivo tests were performed as follows: C57/BL6 mice 8 weeks of age They were injected with […] cells in a 1:1 mix of growth media and matrigel. and tumors were allowed to grow to a minimum diameter of 0.6 cm before the initiation of treatment. All mice were treated daily with the P3K inhibitor BKM120 (37.5 mg/kg) by oral gavage and were given either a normal chow diet, a ketogenic diet, or a normal chow diet with there topically applied βHB. Trial design was built to assess this primary outcome: survival time. Treatment groups randomized as follows: […]
b. Treatment Group 1: BKM120 treatment with standard rodent chow c. Treatment Group 2: BKM120 treatment with ketogenic rodent chow d. Treatment Group 3: BKM120 treatment with standard rodent chow with 100 μL of βHB formulation applied topically twice daily. Formulations detailed below

Experiment [2] is described as follows: Distance run on a treadmill (Example 4). In kind it is in vivo, Wistar rats. As to conditions: 5 days; topical = Formulation D 100 μL twice daily; ketone ester as 30% of calories. As for the experimental part:
(§1) In vivo tests were performed as follows: Wistar rats were treated with either topically applied βHB or a ketone ester diet. The experiment lasted for 5 days. Trial design was built to assess these primary outcomes: the effects on distance run on a treadmill, and on time to complete an 8 arm radial maze. Treatment groups randomized as follows: a. Control Group: standard diet (calorically matched to all treatment groups) b. Treatment Group 1: ketone ester diet with chow that is supplemented with (R)-3-hydroxybutyl (R)-3-hydroxybutyrate as 30% of calories c. […] Formulations detailed below [table]

A short description of experiment [3]: Time to complete an 8 arm radial maze (Example 4). In kind it is in vivo, Wistar rats. Particulars: 5 days; topical = Formulation D 100 μL twice daily; ketone ester as 30% of calories. As for the experimental part: as §1
Experiment [4] can be described thus: Blood glucose levels in rats after ketone supplements (Example 5). The class given is in vivo, Sprague-Dawley rats. As to conditions: 10 g/kg intragastric gavage; 4-week study.
Description: In this experiment, β-hydroxybutyrate (βHB) in formulations of the disclosure was tested for its ability to impact blood ketone and glucose levels and compared to oral delivery of various exogenous ketone supplements.
The experiment lasted for 28 days. Trial design was built to assess these primary outcomes: the effects on blood ketones and blood glucose. Blood samples were taken for analysis of glucose and βHB at baseline and, 0.5, 1, 4, 8, and 12 h post-treatment. Treatment groups randomized as follows:
Treatment Group 1: daily 10 g/kg dose via intragastric gavage of 1,3-butanediol (BD)
Treatment Group 2: daily 10 g/kg dose via intragastric gavage of sodium/potassium β-hydroxybutyrate (βHB) mineral salt (BMS)
Treatment Group 3: daily 10 g/kg dose via intragastric gavage of medium chain triglyceride oil (MCT)
Treatment Group 5: daily 10 g/kg dose via intragastric gavage of 1,3 butanediol acetoacetate diester (KE)
g. Treatment Group 6: 100 μL of βHB formulation applied topically daily.
In experiment [5] the test system is firefly luciferase-tagged syngeneic VM-M3 cells. As to the kind of experiment: Survival of VM mice with metastatic cancer (Example 2). Particulars: VM-M3 implanted VM mice. The class given is in vivo. As for the experimental part: In this experiment, β-hydroxybutyrate (βHB) in formulations of the disclosure was tested for its ability to decrease tumor cell viability and prolong survival and compared to an orally delivered diet supplemented with either 1,3-butanediol (BD) or a ketone ester (KE), which are metabolized to the ketone bodies βHB and acetoacetate.
In vivo tests were performed as follows: Adult male inbred VM mice were implanted subcutaneously with firefly luciferase-tagged syngeneic VM-M3 cells. The mice were then fed a standard diet with no topical treatment, a standard diet supplemented with either 1,3-butanediol (BD) or a ketone ester (KE), or a standard diet with topically applied βHB. Trial design was built to assess this primary outcome: survival time. Treatment groups randomized as follows: […]
a. Control Group: standard diet rodent chow b. Treatment Group 1: standard diet rodent chow mixed with 20% 1,3-butanediol (BD) by volume and 1% saccharin for palatability c. Treatment Group 2: standard diet rodent chow mixed with 10% ketone esters (KE) by volume and 1% saccharin for palatability d. Treatment Group 3: standard diet rodent chow with 100 μL of βHB formulation applied topically twice daily. Formulations detailed below

Molecules are shown by their SMILES.

In experiment [1], `Nc1cc(C(F)(F)F)c(-c2cc(N3CCOCC3)nc(N3CCOCC3)n2)cn1` [BKM120] had a mean survival time of 6.7 days.
Regarding `C[C@@H](O)CCOC(=O)C[C@@H](C)O` [ketone ester diet, (R)-3-hydroxybutyl (R)-3-hydroxybutyrate], the “mean increase in treadmill distance vs control” value in experiment [2] is 32%. The “mean decrease in time to solve the maze vs control” value in experiment [3] was found to be 38%.
Take `CC(O)CCO` (stereo not drawn) [oral BD, 1,3-butanediol]: in experiment [4], the “effect on blood glucose” value is “did not significantly change blood glucose levels at any time point”. Also, in experiment [5] (BD 20% or KE 10% in chow, topical = Formulation B 100 μL twice daily), the “mean increase in mean survival time versus Control Group” value came to 50.6%. The same molecule displayed a mean survival time in experiment [5] (Control Group 31.2 days, topical = Formulation B) of 47.0 days.
